Series [1] concerns HCT116 p53+/+. The experiment in a line: sulforhodamine B (SRB) growth inhibition assay. Format: cell-based, human. Particulars: for IC50: HCT116 p53+/+, 48 hours incubation, SRB assay; for p53-dependence of anti-proliferative effect: comparison of IC50 in HCT116 p53+/+ and HCT116 p53−/−. As for the experimental part: (§1) Cancer cells were plated at 5.0×10^3 cells/well in 96-well plates and incubated for 24 hours. Cells were then exposed to serial dilutions of MANIO, CP-31398 or PRIMA-1MET (from 0.3 to 80 μM). The effect of the compounds was analyzed following 48 hours incubation, using the sulforhodamine B (SRB) assay. The solvent DMSO corresponding to the maximum concentration used in these assays (0.025%) was included as control. Results are the mean±S.E.M. of 3-5 independent experiments.
(§2) Cancer cells were plated in 96-well plates and incubated for 24 hours. Cells were then exposed to serial dilutions of compound (from 0.3 to 80 μM). The effect of the compound was analyzed following 48 hours incubation, using the sulforhodamine B (SRB) assay. The solvent DMSO corresponding to the maximum concentration used in these assays (0.025%) was included as control. Results are the mean±S.E.M. of 3-5 independent experiments.

Series [2] relates to HCT116 p53−/−. The experiment in a line: sulforhodamine B (SRB) growth inhibition assay. Format: cell-based, human. The procedure: as §1, §2
Series [3] deals with H1299 (p53-null). The experiment in a line: sulforhodamine B (SRB) growth inhibition assay. Format: cell-based. Particulars: Homo sapiens, NCI-H1299, H1299, 48 hours incubation. The procedure:
as §2

Series [4] relates to H460 (wtp53). Nature of the series: sulforhodamine B (SRB) growth inhibition assay. Format: cell-based. The following applies: Homo sapiens, NCI-H460, H460, 48 hours incubation. As for the experimental part:
as §2

Series [5] deals with HT-29 (mutp53 R273H). Nature of the series: sulforhodamine B (SRB) growth inhibition assay. Format: cell-based. Particulars: Homo sapiens, HT-29, 48 hours incubation. The procedure: as §2
For series [6], the system named is HepG2 (wtp53). The experiment in a line: sulforhodamine B (SRB) growth inhibition assay. The format is cell-based. Particulars: Homo sapiens, HepG2, 48 hours incubation. As for the experimental part:
as §2

Series [7] relates to Huh-7 (mutp53 Y220C). Nature of the series: sulforhodamine B (SRB) growth inhibition assay. Format: cell-based. Particulars: Homo sapiens, Huh-7, 48 hours incubation. As for the experimental part: as §2
In series [8] the test system is MDA-MB-468 (mut p53 R273H). The experiment in a line: sulforhodamine B (SRB) growth inhibition assay. The following applies: Homo sapiens, MDA-MB-468, 48 hours incubation. Format: cell-based. As for the experimental part: as §2
In series [9] the test system is SW837 (mutp53 R248W). The experiment in a line: sulforhodamine B (SRB) growth inhibition assay. Format: cell-based. Particulars: Homo sapiens, SW837, 48 hours incubation. The procedure: as §2
Series [10] deals with skin cancer cell lines (A375, SCC4925, A375C5 cells). The experiment in a line: anti-proliferative effect in skin cancer cell lines. Format: cell-based. The following applies: range over A375, SCC4925, A375C5 cells.
Series [11] concerns MCF7 breast cancer cell lines. The following applies: cited from earlier work.
Series [12] has as its system wild-type p53-expressing cancer cells (colon HCT116 p53+/+, breast MCF7, and lung H460 cells). Nature of the series: growth inhibition (SRB) in panel of wild-type p53 cancer cell lines. The format is cell-based. The following applies: Homo sapiens, range over HCT116 p53+/+, 48 hours, read-out: IC50 (concentration of compound that causes 50% growth inhibition). As for the experimental part: (§3) FIG. 2 illustrates the growth inhibitory effect of MANIO in a panel of human cancer cell lines (HCT116 p53+/+, MCF7, H460, MDA-MB-468, HT-29, SW837, Huh-7, HCT116 p53−/−, H1299, HCC1937). IC50 values were determined by the sulforhodamine B assay after 48 hours treatment with MANIO. Data are mean±SEM (n=4-5).
(§4) The compound (3S)-6,7-bis(hydroxymethyl)-1H,3H-pyrrolo[1,2-c]thiazole, MANIO, inhibited the growth of tumor cells expressing wild-type and mutant p53 forms, with much lower anti-proliferative effect on p53-null cancer cells: The activity of the compound (FIG. 1, with R^1═H, R^2=Ph and R^3=Me) was tested in an array of cancer cell lines with different p53 status.

Series [13] concerns mutant p53-expressing cancer cells (breast MDA-MB-468, rectum SW837, colon HT29, and hepatocarcinoma Huh-7 cells). The experiment in a line: growth inhibition (SRB) in panel of mutant p53 cancer cell lines. Format: cell-based. The following applies: Homo sapiens, range over MDA-MB-468, SW837, HT29, Huh-7, 48 hours, read-out: IC50 (concentration of compound that causes 50% growth inhibition). The procedure: as §3, §4

Series [14] relates to p53-null cancer cells (colon HCT116 p53−/−, breast H1299 and HCC1937 cells). The experiment in a line: growth inhibition (SRB) in panel of p53-null cancer cell lines. Format: cell-based. The following applies: Homo sapiens, range over HCT116 p53−/−, 48 hours, read-out: IC50 (concentration of compound that causes 50% growth inhibition). As for the experimental part:
as §3, §4

Series [15] deals with HCT116 p53+/+ and HCT116 p53−/− cells. The experiment in a line: colony formation assay. The format is cell-based, human. Particulars: 14 days of treatment. An excerpt:
FIG. 4 illustrates the effect of MANIO on HCT116 p53+/+ (A) and HCT116 p53−/− (B) cell colony formation after 14 days of treatment.
MANIO had p53-dependent anti-proliferative effect in colon carcinoma cells: The activity of the compound as wild-type p53 activator was studied in colon carcinoma cells with (HCT116 p53+/+) and without (HCT116 p53−/−) p53 (FIG. 3; Table 1). The IC50 value of MANIO in HCT116 p53+/+ cells was about […] lower than that obtained in HCT116 p53−/− cells, indicating a p53-dependent anti-proliferative effect.

The test system of series [16] is HCT116 cells. Nature of the series: cell cycle analysis by flow cytometry (propidium iodide). Particulars: 1 μM and 2.5 μM, 48 hours. The format is cell-based, human. The procedure: (§5) FIG. 5 illustrates the effect of 1 μM and 2.5 μM MANIO on cell cycle progression (A) and apoptosis (B) in HCT116 p53+/+ and HCT116 p53−/− cells. (A) Cell cycle phases were analysed by flow cytometry using propidium iodide (PI) and quantified using the FlowJo software, after 48 hours MANIO treatment. […] (B) Apoptosis was analysed by flow cytometry using FITC-Annexin V and PI, after 48 hours or 72 hours MANIO treatment.
On the technique in general: In flow cytometry, cells or beads pass a laser one at a time.

For series [17], the system named is HCT116 cells. The experiment in a line: apoptosis by flow cytometry (FITC-Annexin V and PI). The following applies: 1 μM and 2.5 μM, 48 hours or 72 hours. Format: cell-based, human. As for the experimental part: as §5
Series [18] relates to p53 in HCT116 p53+/+ cells. Nature of the series: Western blot and RT-qPCR of p53 and p53 target genes. Format: cell-based, human. As for the experimental part: FIG. 6 illustrates the MANIO effect on protein levels of p53 (A), the mRNA (B) and protein (C) expression levels of p53 target genes and PARP cleavage, in HCT116 p53+/+ and HCT116 p53−/− cells. (B) mRNA levels of p53 target genes in HCT116 cells (MDM2, CDKN1A, GADD45A, BAX, TNFRSF10B, PUMA, NOXA), after 48 hours treatment with MANIO, or DMSO, determined by RT-qPCR. Fold of induction is relative to DMSO. […] Immunoblots represent one of three independent experiments. GAPDH was used as a loading control.
For orientation: In western blotting, separated proteins are transferred to a membrane and probed.

The subject of series [19] is mutant p53 forms ectopically expressed in p53-null H1299 cells. The experiment in a line: growth inhibition (SRB) in mutant p53-transfected H1299 cells. Format: cell-based, human. Particulars: R282W, R248W, R280K, R273H, R273C, G245D, R175H, R248Q; 48 hours; versus empty vector. As for the experimental part:
FIG. 7 illustrates the growth inhibitory effect of MANIO in mutant p53-transfected H1299 cells. H1299 cells were transfected with pcDNA3 plasmid expressing different p53 mutants (R282W, R248W, R280K, R273H, R273C, G245D, R175H, R248Q, Y220C, G245S), or with the empty pcDNA3 plasmid, using ScreenFect®A. The growth inhibitory effect was evaluated by sulforhodamine B assay after 48 hours treatment with MANIO.

Series [20] relates to HCT116 p53+/+ cells. Nature of the series: Comet assay (genotoxicity). The following applies: MANIO 1 and 2.5 μM; etoposide 50 μM. The format is cell-based, human. The source says:
Scale bar=20 μm; Magnification=200×.
For that purpose, the Comet assay was used, which measures the ability of genotoxic agents to induce DNA strand breaks in eukaryotic cells.

Series [21] concerns HCT116 p53+/+ cells. Nature of the series: wound healing assay (cell migration). Format: cell-based, human. Particulars: 0.2 and 0.375 μM. As for the experimental part: FIG. 9 illustrates the prevention of HCT116p53+/+ cell migration by MANIO. Confluent cells were treated with 0.20 and 0.375 μM MANIO or DMSO, and observed at different time-points in the wound healing assay (scale bar=50 μm and magnification=100×).
MANIO prevented cell migration of human colon cancer cells: The effect of MANIO on the migration ability of HCT116 p53+/+ cells was also studied.

Series [22] relates to HCT116 p53+/+ tumors. Nature of the series: in vivo xenograft mouse model. The arrangement: species or system Swiss nude mice. Particulars: versus vehicle. As for the experimental part: FIG. 10 illustrates the in vivo antitumor activity of MANIO. (A) Swiss nude mice were implanted subcutaneous with xenografts of 1.5×10^6 HCT116 p53+/+ cells. The treatment was initiated when palpable tumors were established (˜100 mm3) and consisted in 4 intraperitoneal injections (2 times per week) of vehicle (control) or 100 mg/kg of MANIO (n=5 for each group). […] (B) The tumor weight after MANIO or vehicle (control) treatment was measured; data are mean±SEM (*p<0.05; unpaired Student's t-test). […] This description is of course not in any way restricted to the forms of implementation presented herein and any person with an average knowledge of the area can provide many possibilities for modification thereof without departing from the general idea as defined by the claims. The preferred forms of implementation described above can obviously be combined with each other. The following claims further define the preferred forms of implementation.

Where [23] appears, read: Homo sapiens, HCT-116, 48 hours incubation.

Turning to `Cc1c(CO)c(CO)c2n1[C@@H](c1ccccc1)SC2` [(3R)-6,7-Bis (hydroxymethyl)-5-methyl-3-phenyl-1H,3H-pyrrolo[1,2-c]thiazole], the IC50 in series [1] (Homo sapiens, HCT-116) worked out at 5.11 ± 0.42 µM; in [2] (setting [23]), 51.8 ± 2.73 µM; in [3] it was 25.5 ± 2.38 µM; in [4], 1.8 ± 0.089 µM; in series [5] it was 5.88 ± 1.28 µM; in series [6], 50.3 ± 1.63 µM. In addition, the IC50 is 6.43 ± 0.32 µM in series [7], 0.91 ± 0.0095 µM in series [8], 7.35 ± 0.89 µM in series [9] and 25 to 35 µM in [10]. Besides, in [1], the “p53-dependence of anti-proliferative effect” value (“p53-dependence” below) is recorded as “relevant p53-dependent anti-proliferative activity”. The anti-proliferative activity result in series [11] is “potent anti-proliferative activity”.
In the case of `COc1ccc(/C=C/c2nc(NCCCN(C)C)c3ccccc3n2)cc1` [CP-31398, reference compound], in series [1], the IC50 was 3.4 ± 0.1 µM and the “p53-dependence” value is given as “lower p53-dependence than the compound”. Besides, the IC50 in series [2] (48 hours incubation) is 7.3 ± 0.6 µM.
`Cc1c(CO)c(CO)c2n1[C@H](c1ccccc1)SC2` [MANIO, (3S)-6,7-Bis(hydroxymethyl)-5-methyl-3-phenyl-1H,3H-pyrrolo[1,2-c]thiazole]: the “IC50 in HCT116 p53+/+ cells lower than in HCT116 p53−/− cells” value in series [1] (HCT116 p53+/+ versus HCT116 p53−/−) is reported as “about 50 fold”. Also, the IC50 is 0.96 ± 0.04 µM in [1] (Homo sapiens, HCT-116); 48.2 ± 1.97 µM in series [2] (setting [23]); 0.2 to 0.96 µM in series [12]; 0.2 to 3.2 µM in [13]; 28.5 to 48.2 µM in series [14]; 25 to 35 µM in series [10]. Also, in series [15], the colony-forming ability result is “reduce the colony-forming ability of HCT116 in a p53-dependent manner”. The cell cycle progression entry in series [16] is “induction of a G2/M-phase cell arrest”. In addition, in series [17], the apoptosis result is given as “apoptotic cell death”. The “mRNA and proteins encoded by p53 target genes” value in [18] (1 μM) was “increased”. Moreover, the p53 protein levels result in [18] (1 μM, 24, 48 and 72 hours) is reported as “increased the p53 protein levels”. In addition, the “growth inhibition of cells transfected with p53 mutants” value in series [19] was “significant growth inhibition”. For the same compound, the “percentage of tail DNA (DNA damage)” value in series [20] was “did not significantly increase the percentage of tail DNA”. Also, the wound closure entry in series [21] was “significantly reduced the wound closure”. Besides, the “mice weight during treatment” value in series [22] (100 mg/kg intraperitoneal, 2 times per week) is “no significant differences between control and MANIO-treated mice weight”. Moreover, the “growth of the HCT116 p53+/+ tumors” value in series [22] (four intraperitoneal administrations of 100 mg/kg) is recorded as “significantly inhibited”. In series [11], the anti-proliferative activity result is listed as “potent anti-proliferative activity”.
Consider `COCC1(CO)C(=O)C2CCN1CC2` (stereo not drawn) [PRIMA-1^MET, reference compound], for which, in [1], the IC50 worked out at 19.9 ± 4 µM and the “p53-dependence” value was “lower p53-dependence than the compound”. The IC50 in [2] (48 hours incubation) came to 13.1 ± 2 µM.

Source of the values: US12383537B2, “(3S)-and (3R)-6,7-bis(hydroxymethyl)-1H,3H-pyrrolo[1,2-c]thiazoles as P53 activators” (UNIVERSIDADE DE COIMBRA, priority 2018, dated 2025).
